Source: patent US20220054532A1, “VETERINARY COMPOSITIONS AND METHODS OF USE THEREFOR” (priority 2019, published 2022)

How the values were obtained:
Type in all cases: in vivo
[1] = test system: dogs suffering from heart failure; test: Example 7: heart failure in dogs; details: heart failure scale 1 (few to no clinical signs) to 10 (severe); for Initial Score: day 0; for Final Score: day 90, BID
Description: This example examines the ability of embodiments of the invention versus enalapril to treat heart failure.
The patient group is twenty-four dogs suffering from heart failure.
The patient group is broken into six groups of four dogs. The first group receives enalapril as the sole active agent; the second group receives a composition comprising enalapril and Lasix®; the third group receives a composition comprising HMW HA as the sole active agent; the fourth group receives a composition comprising CBD as the sole active agent; the fifth group receives a composition comprising HMW HA and CBD as the active agents; and the sixth group receives a composition comprising HMW HA, CBD, liposomal CoQ10, hawthorn berry, and ginko biloba as the active agents.
Each composition is administered for a period of ninety (90) days, BID. Each animal is evaluated on days 0 (“Initial Score”), 30, 60, and 90 (“Final Score”) of treatment. The results are averaged and characterized on a scale of 1 (few to no clinical signs of heart failure) to 10 (severe heart failure).
The following canine scores are observed and the results depicted in FIG. 7: […]

[2] = test system: dogs suffering from osteoarthritis; test: Example 1: pain relief and side effects in canine osteoarthritis; details: dogs with osteoarthritis, 4 weeks of administration, group average
Description: This example examines the ability of various compositions to minimize pain and examines the level of adverse side effects of each composition.
At the outset of the study, participants receive a full physical examination, including weight measurement, thigh circumference, and CBC/blood chemistries. Because osteoarthritis is not only a disease of pain, but one characterized by behavioral, appetite, anxiety/aggression, family socialization, and sleep aberrations, the pet's owners are familiarized with the pain scale (canine orthopedic index) and additional behavioral assessment log.
The patient group is twenty-four dogs suffering from osteoarthritis, broken into eight groups of three dogs. The first group receives a control composition with no active agent; the second group receives a composition comprising HA as the sole active agent; the third group receives a composition comprising HMW HA as the sole active agent; the fourth group receives a composition comprising CBD as the sole active agent; the fifth group receives a composition comprising HA and CBD as the active agents; the sixth group receives a composition comprising HMW HA and CBD as the active agents; the seventh group receives a composition comprising Rimadyl as the active agent; and the eighth group receives a composition comprising Meloxicam as the active agent.
Each composition is administered for a period of four (4) weeks. The owner completes the electronic log questionnaire each week. At the end of the 4-week study, participants have another full physical examination, including weight measurement, thigh circumference, and CBC/blood chemistries, with an exit interview of the owners to gain final impressions.
Each group is evaluated for pain scores and the scores averaged. The following scores are observed and the results depicted in FIG. 1: […]

[3] = test system: dogs suffering behavior aberrations and/or anxiety; test: Example 5: behavior aberrations and anxiety, C-BARQ (canine); details: C-BARQ day 0 vs 60, SID, 0 (no improvement) to 3 (marked improvement)
Description: This example examines the ability of embodiments of the invention versus Clomicalm® to reduce behavior aberrations and anxiety.
The first patient group is twenty dogs suffering behavior aberrations and/or anxiety, as determined by the canine behavioral assessment and research questionnaire (“C-BARQ”). See, e.g., P. Wiener et al., Use of questionnaire-based data to assess dog personality, 16 JOURNAL OF VETERINARY BEHAVIOR 81-85 (2016). The second patient group is twenty cats suffering behavior aberrations and/or anxiety, as determined by the feline behavioral assessment and research questionnaire (“Fe-BARQ”).
Each group is broken into five groups of four animals. The first group receives Clomicalm® as the sole active agent; the second group receives a composition comprising HMW HA as the sole active agent; the third group receives a composition comprising CBD as the sole active agent; the fourth group receives a composition comprising HMW HA and CBD as the active agents; and the fifth group receives a composition comprising HMW HA, CBD, valerian root, and scutillaria as the active agents.
Each composition is administered for a period of sixty (60) days, once a day (“SID”). Owners complete the species-appropriate C-BARQ or Fe-BARQ on days 0 and 60 of treatment. The results from the overall questionnaire are averaged and characterized as no improvement (score of 0), mild improvement (score of 1), moderate improvement (score of 2), or marked improvement (score of 3).
The following canine scores are observed and the results depicted in FIG. 5a: […]

[4] = test system: dogs suffering from GI-specific inflammation; test: Example 3: GI-specific inflammation, owner-rated symptom reduction (canine); details: symptom reduction score 0 (no reduction) to 4 (resolution of symptoms); for Final Score: after 28 days BID
Description: (§1) This example examines the ability of embodiments of the invention versus Pepcid® to treat unwanted GI-specific inflammation characterized by gastritis, reflux, vomiting, diarrhea, and inappetence.
(§2) The first patient group is twenty dogs suffering from GI-specific inflammation. The second patient group is twenty cats suffering from GI-specific inflammation. Each patient group is broken into five groups of four animals. The first groups receive Pepcid® as the sole active agent; the second groups receive a composition comprising HMW HA as the sole active agent; the third groups receive a composition comprising CBD as the sole active agent; the fourth groups receive a composition comprising HMW HA and CBD as the active agents; and the fifth groups receive a composition comprising HMW HA, CBD, and glutathione as the active agents.
(§3) Each composition is administered for a period of twenty-eight (28) days, BID. The owner observes potential reduction of symptoms at the end of treatment and rates the reduction as no reduction (score of 0), mild reduction (score of 1), moderate reduction (score of 2), significant reduction (score of 3), or resolution of symptoms (score of 4).
The following canine scores are observed and the results depicted in FIG. 3a: […]

[5] = test system: dogs suffering from GI-specific inflammation; test: Example 11: GI-specific inflammation, owner-rated symptom reduction (canine, CBD Complex); details: canine (FIG. 11a), symptom reduction score 0 (no reduction) to 4 (resolution of symptoms); for Final Score: after 28 days BID
Description: as §1
as §2, with “and CBD Complex as the” for “and CBD as the”, “HMW HA, CBD Complex, and glutathione” for “HMW HA, CBD, and glutathione”
as §3

Row | Compound | Initial Score [1] | Final Score [1] | Average Pain Score [2] | Average Side Effect Score [2] | Average Pain Score ([2]; listed as CBD alone) | Average Side Effect Score ([2]; listed as CBD alone) | Improvement Score [3] | Final Score [4] | Initial Score [4] | Final Score [5] | Initial Score [5] | Average Pain Score ([2]; listed as HMW HA alone) | Average Side Effect Score ([2]; listed as HMW HA alone)
1 | C=C(C)[C@@H]1CCC(C)=C[C@H]1c1c(O)cc(CCCCC)cc1O [CBD Alone, 2-[(1R,6R)-3-methyl-6-prop-1-en-2-ylcyclohex-2-en-1-yl]-5-pentylbenzene-1,3-diol] | 8 | 4 | 19 | 0.5 | not especially effective in reducing pain | even lower degree of adverse side effects | 2 | 2 | 0 | 2 | 0 | – | –
2 | hyaluronic acid [HMW HA Alone] | 8 | 4 | 16 | 4 | – | – | 1 | 3 | 0 | 3 | 0 | only slightly reduce pain | low degree of adverse side effects
